Measurements reported in PubChem BioAssay (NCI).
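In this assay, cells in 96-well plates receive the compound at five concentrations for 48 hours. Endpoints are linearly interpolated between the surrounding concentrations. TGI: total growth inhibition.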

How the values were obtained:
Test in all cases: DTP human tumour cell line panel, 48 h
EKVX NSCLC = tested on: EKVX NSCLC
HOP-92 NSCLC = tested on: HOP-92 NSCLC
ACHN renal = tested on: ACHN renal
OVCAR-8 ovarian = tested on: OVCAR-8 ovarian
NCI-H226 lung = tested on: NCI-H226 lung
SNB-19 CNS = tested on: SNB-19 CNS
HCC-2998 colon = tested on: HCC-2998 colon
OVCAR-4 ovarian = tested on: OVCAR-4 ovarian
SF-539 CNS = tested on: SF-539 CNS
786-0 renal = tested on: 786-0 renal
UO-31 renal = tested on: UO-31 renal

Structure (SMILES)	TGI (EKVX NSCLC)	TGI (HOP-92 NSCLC)	TGI (ACHN renal)	TGI (OVCAR-8 ovarian)	TGI (NCI-H226 lung)	TGI (SNB-19 CNS)	TGI (HCC-2998 colon)	TGI (OVCAR-4 ovarian)	TGI (SF-539 CNS)	TGI (786-0 renal)	TGI (UO-31 renal)
CSC1=C(C#N)C(=O)N(c2ccc(C)cc2)C(=S)C1C#N (centres undefined)	> 100 µM	> 100 µM	> 100 µM	> 100 µM	> 100 µM	> 100 µM	> 100 µM	> 100 µM	> 100 µM	> 100 µM	–
C=CCSC1=N/C(=C\c2ccccc2)C(=O)N1CC=C	77 µM	> 78.1 µM	> 100 µM	> 100 µM	> 100 µM	> 100 µM	> 100 µM	> 100 µM	> 100 µM	> 100 µM	> 100 µM
N#Cc1c(N2CCCC2)ncn(Cc2ccccc2)c1=O	> 100 µM	> 100 µM	> 100 µM	> 100 µM	> 100 µM	> 100 µM	> 100 µM	> 100 µM	> 100 µM	> 100 µM	> 100 µM
O=C1COc2ccc([N+](=O)[O-])cc2C(=O)C1	> 10 µM	> 10 µM	> 10 µM	> 10 µM	> 10 µM	> 10 µM	> 10 µM	> 10 µM	> 10 µM	> 10 µM	> 10 µM
NC(=S)Nc1[nH]c(=S)nc2c1SC1=N/C(=C\c3ccco3)C(=O)N12	> 100 µM	> 100 µM	> 100 µM	> 100 µM	> 100 µM	> 100 µM	> 50.4 µM	> 100 µM	> 100 µM	> 100 µM	> 100 µM
C/C(=N\NC(N)=S)C(CN(CC(C)C)CC(C)C)C(=O)Nc1ccc(C)cc1C (centres undefined)	> 100 µM	> 100 µM	> 100 µM	> 100 µM	> 100 µM	> 100 µM	> 100 µM	> 100 µM	> 100 µM	> 100 µM	> 100 µM
c1ccc2c(c1)nc(NC1CCCC1)c1[nH]c(C3CCCC3)nc12	> 100 µM	37.2 µM	> 75.6 µM	24.3 µM	45.1 µM	> 100 µM	17.6 µM	30.1 µM	21.1 µM	20.7 µM	63 µM
Cc1[nH]c2ccccc2c1C=Nc1ccc(N=Cc2c(C)[nH]c3ccccc23)cc1	> 100 µM	> 100 µM	> 100 µM	> 100 µM	> 100 µM	> 100 µM	> 100 µM	> 100 µM	> 100 µM	35.7 µM	> 100 µM
CCOc1nc(-c2ccccc2)cc(-c2ccc(N3CCOCC3)cc2)c1C#N	> 100 µM	> 100 µM	> 100 µM	> 100 µM	> 100 µM	> 100 µM	> 100 µM	> 100 µM	> 100 µM	> 100 µM	> 100 µM
COC(=O)c1cc(C#N)[nH]c1-c1ccc(C)s1	78.6 µM	82.1 µM	> 100 µM	> 100 µM	> 100 µM	> 100 µM	> 100 µM	> 100 µM	> 100 µM	> 100 µM	> 100 µM
O=C(OCc1ccccc1)C1(N2CN(C3(C(=O)OCc4ccccc4)CCCC3)CN(C3(C(=O)OCc4ccccc4)CCCC3)C2)CCCC1	> 10 µM	> 10 µM	> 10 µM	> 10 µM	> 10 µM	> 10 µM	> 10 µM	> 10 µM	> 10 µM	> 10 µM	> 10 µM
CCOC(=O)/C=C(\C(=O)OCC)n1ccc(N)nc1=O	> 100 µM	> 100 µM	> 100 µM	> 100 µM	> 100 µM	> 100 µM	> 100 µM	> 100 µM	> 100 µM	> 100 µM	> 100 µM
OC1(c2cc3ccccc3s2)CCCCC1	71.7 µM	> 100 µM	> 100 µM	> 100 µM	> 100 µM	> 100 µM	> 100 µM	> 100 µM	> 100 µM	> 100 µM	> 100 µM
CN(NC(=O)CCCl)C1=NCCCCN1	> 100 µM	> 100 µM	> 100 µM	> 100 µM	> 100 µM	> 100 µM	> 100 µM	> 100 µM	> 100 µM	> 100 µM	> 100 µM
NCCNc1cccc2ccccc12	> 100 µM	> 100 µM	> 100 µM	> 100 µM	> 100 µM	> 100 µM	> 100 µM	> 100 µM	> 100 µM	> 100 µM	> 100 µM
C=CCNC(=O)NC1=CSC2=NC(=O)C3(NN12)c1ccccc1-c1ccccc13	> 10 µM	> 10 µM	> 10 µM	> 10 µM	> 10 µM	> 10 µM	> 10 µM	> 10 µM	> 10 µM	> 10 µM	> 10 µM
NC(=O)c1ccc2c(c1)S(=O)(=O)c1ccccc1C2=O	> 100 µM	> 100 µM	> 100 µM	> 100 µM	> 100 µM	> 100 µM	> 100 µM	> 100 µM	> 100 µM	> 100 µM	> 100 µM
CC(C)c1ccc(/C=C2\CSCC3=C2NC(=S)NC3c2ccc(C(C)C)cc2)cc1 (centres undefined)	> 100 µM	> 100 µM	> 100 µM	> 100 µM	> 100 µM	> 100 µM	> 100 µM	> 100 µM	> 100 µM	> 100 µM	> 100 µM
O=c1c2cc(I)ccc2nc(Sc2ncccc2[N+](=O)[O-])n1Cc1ccccc1	71.2 µM	77.6 µM	> 100 µM	> 100 µM	> 100 µM	> 100 µM	> 100 µM	> 100 µM	> 100 µM	> 100 µM	> 100 µM
COc1cccc(N(CN2CC=CC2=O)C(C)=O)c1	> 100 µM	> 100 µM	> 100 µM	> 100 µM	> 100 µM	> 100 µM	> 100 µM	> 100 µM	> 100 µM	> 100 µM	> 100 µM
